Results taken from ChEMBL document CHEMBL5724914, “Linking interpersonal differences in gut microbiota composition and drug biotransformation activity” (2024).

Assays:
[1] = (§1) The drug is tested on Z-030 corresponding to mouse gut metagenome with ENA study accession number: PRJEB37062 and ENA sample accession number: ERS12561829 for biotransformation under anaerobic condition. The drug concentrations were measured over 9 timepoints collected between 0 and 24 hours of incubation by liquid-chromatography-coupled mass spectrometry (LC–MS); conditions: 2 µM
[2] = as §1, with “Z-020” for “Z-030”, “rabbit” for “mouse”, “ERS12561819” for “ERS12561829”; conditions: 2 µM
[3] = as §1, with “Z-014” for “Z-030”, “rat” for “mouse”, “ERS12561814” for “ERS12561829”; conditions: 2 µM
[4] = as §1, with “Z-010” for “Z-030”, “to” for “to mouse gut”, “ERS12561810” for “ERS12561829”; conditions: 2 µM
[5] = as §1, with “Z-007” for “Z-030”, “rat” for “mouse”, “ERS12561807” for “ERS12561829”; conditions: 2 µM
[6] = as §1, with “Z-006” for “Z-030”, “ERS12561806” for “ERS12561829”; conditions: 2 µM
[7] = as §1, with “WLS-240” for “Z-030”, “human” for “mouse”, “ERS12561773” for “ERS12561829”; conditions: 2 µM
[8] = as §1, with “WLS-220” for “Z-030”, “human” for “mouse”, “ERS12561769” for “ERS12561829”; conditions: 2 µM
[9] = as §1, with “WLS-082” for “Z-030”, “human” for “mouse”, “ERS12561751” for “ERS12561829”; conditions: 2 µM
[10] = as §1, with “WLS-052” for “Z-030”, “human” for “mouse”, “ERS12561747” for “ERS12561829”; conditions: 2 µM
[11] = as §1, with “WLS-039” for “Z-030”, “human” for “mouse”, “ERS12561746” for “ERS12561829”; conditions: 2 µM
[12] = as §1, with “WLS-027” for “Z-030”, “human” for “mouse”, “ERS12561744” for “ERS12561829”; conditions: 2 µM
[13] = human gut metagenome, 24 h, 2 µM
[14] = human gut metagenome, 24 h, 2 µM; remark: listed apart in the source
[15] = human gut metagenome, 24 h, 2 µM; remark: listed apart in the source
[16] = human gut metagenome, 24 h, 2 µM; remark: listed apart in the source
[17] = human gut metagenome, 24 h, 2 µM; remark: listed apart in the source
[18] = human gut metagenome, 24 h, 2 µM; remark: listed apart in the source
[19] = human gut metagenome, 24 h, 2 µM; remark: listed apart in the source
[20] = human gut metagenome, 24 h, 2 µM; remark: listed apart in the source
Note: call rule not given here.

CC1=C(CC(=O)O)c2cc(F)ccc2/C1=C\c1ccc([S+](C)[O-])cc1 (stereo not given)
Bacterial Biotransformation [1]: Compound metabolized
Bacterial Biotransformation [2]: Compound NOT metabolized
Bacterial Biotransformation [3]: Compound NOT metabolized
Bacterial Biotransformation [4]: Compound NOT metabolized
Bacterial Biotransformation [5]: Compound NOT metabolized
Bacterial Biotransformation [6]: Compound NOT metabolized
Bacterial Biotransformation [7]: Compound metabolized
Bacterial Biotransformation [8]: Compound metabolized
Bacterial Biotransformation [9]: Compound metabolized
Bacterial Biotransformation [10]: Compound metabolized
Bacterial Biotransformation [11]: Compound metabolized
Bacterial Biotransformation [12]: Compound metabolized
Bacterial Biotransformation [13]: Compound metabolized
Bacterial Biotransformation [14]: Compound metabolized
Bacterial Biotransformation [15]: Compound metabolized
Bacterial Biotransformation [16]: Compound metabolized
Bacterial Biotransformation [17]: Compound metabolized
Bacterial Biotransformation [18]: Compound metabolized
Bacterial Biotransformation [19]: Compound metabolized
Bacterial Biotransformation [20]: Compound metabolized

CCN1CCCC1CNC(=O)c1cc(S(=O)(=O)CC)c(N)cc1OC (stereo not given) [AMISULPRIDE]
Bacterial Biotransformation [1]: Compound NOT metabolized
Bacterial Biotransformation [2]: Compound NOT metabolized
Bacterial Biotransformation [3]: Compound NOT metabolized
Bacterial Biotransformation [4]: Compound NOT metabolized
Bacterial Biotransformation [5]: Compound NOT metabolized
Bacterial Biotransformation [6]: Compound NOT metabolized
Bacterial Biotransformation [7]: Compound metabolized
Bacterial Biotransformation [8]: Compound NOT metabolized
Bacterial Biotransformation [9]: Compound NOT metabolized
Bacterial Biotransformation [10]: Compound NOT metabolized
Bacterial Biotransformation [11]: Compound NOT metabolized
Bacterial Biotransformation [12]: Compound NOT metabolized
Bacterial Biotransformation [13]: Compound NOT metabolized
Bacterial Biotransformation [14]: Compound NOT metabolized
Bacterial Biotransformation [15]: Compound NOT metabolized
Bacterial Biotransformation [16]: Compound metabolized
Bacterial Biotransformation [17]: Compound NOT metabolized
Bacterial Biotransformation [18]: Compound metabolized
Bacterial Biotransformation [19]: Compound NOT metabolized
Bacterial Biotransformation [20]: Compound NOT metabolized

CC(C)NCC(O)COc1ccc(CC(N)=O)cc1 (stereo not given) [ATENOLOL]
Bacterial Biotransformation [1]: Compound NOT metabolized
Bacterial Biotransformation [2]: Compound NOT metabolized
Bacterial Biotransformation [3]: Compound NOT metabolized
Bacterial Biotransformation [4]: Compound NOT metabolized
Bacterial Biotransformation [5]: Compound NOT metabolized
Bacterial Biotransformation [6]: Compound NOT metabolized
Bacterial Biotransformation [7]: Compound NOT metabolized
Bacterial Biotransformation [8]: Compound NOT metabolized
Bacterial Biotransformation [9]: Compound NOT metabolized
Bacterial Biotransformation [10]: Compound NOT metabolized
Bacterial Biotransformation [11]: Compound NOT metabolized
Bacterial Biotransformation [12]: Compound NOT metabolized
Bacterial Biotransformation [13]: Compound NOT metabolized
Bacterial Biotransformation [14]: Compound NOT metabolized
Bacterial Biotransformation [15]: Compound NOT metabolized
Bacterial Biotransformation [16]: Compound NOT metabolized
Bacterial Biotransformation [17]: Compound NOT metabolized
Bacterial Biotransformation [18]: Compound metabolized
Bacterial Biotransformation [19]: Compound NOT metabolized
Bacterial Biotransformation [20]: Compound metabolized

CC(=O)OCC(=O)[C@@]1(OC(C)=O)[C@@H](C)C[C@H]2[C@@H]3C[C@H](F)C4=CC(=O)C=C[C@]4(C)[C@@]3(F)[C@@H](O)C[C@@]21C [DIFLORASONE DIACETATE]
Bacterial Biotransformation [1]: Compound metabolized
Bacterial Biotransformation [2]: Compound metabolized
Bacterial Biotransformation [3]: Compound NOT metabolized
Bacterial Biotransformation [4]: Compound metabolized
Bacterial Biotransformation [5]: Compound NOT metabolized
Bacterial Biotransformation [6]: Compound metabolized
Bacterial Biotransformation [7]: Compound metabolized
Bacterial Biotransformation [8]: Compound metabolized
Bacterial Biotransformation [9]: Compound metabolized
Bacterial Biotransformation [10]: Compound metabolized
Bacterial Biotransformation [11]: Compound metabolized
Bacterial Biotransformation [12]: Compound metabolized
Bacterial Biotransformation [13]: Compound metabolized
Bacterial Biotransformation [14]: Compound metabolized
Bacterial Biotransformation [15]: Compound metabolized
Bacterial Biotransformation [16]: Compound metabolized
Bacterial Biotransformation [17]: Compound metabolized
Bacterial Biotransformation [18]: Compound metabolized
Bacterial Biotransformation [19]: Compound metabolized
Bacterial Biotransformation [20]: Compound metabolized

CN(C)CCC=C1c2ccccc2COc2ccccc21 [DOXEPIN]
Bacterial Biotransformation [1]: Compound NOT metabolized
Bacterial Biotransformation [2]: Compound NOT metabolized
Bacterial Biotransformation [3]: Compound NOT metabolized
Bacterial Biotransformation [4]: Compound NOT metabolized
Bacterial Biotransformation [5]: Compound NOT metabolized
Bacterial Biotransformation [6]: Compound NOT metabolized
Bacterial Biotransformation [7]: Compound metabolized
Bacterial Biotransformation [8]: Compound metabolized
Bacterial Biotransformation [9]: Compound NOT metabolized
Bacterial Biotransformation [10]: Compound NOT metabolized
Bacterial Biotransformation [11]: Compound metabolized
Bacterial Biotransformation [12]: Compound metabolized
Bacterial Biotransformation [13]: Compound metabolized
Bacterial Biotransformation [14]: Compound NOT metabolized
Bacterial Biotransformation [15]: Compound metabolized
Bacterial Biotransformation [16]: Compound NOT metabolized
Bacterial Biotransformation [17]: Compound NOT metabolized
Bacterial Biotransformation [18]: Compound metabolized
Bacterial Biotransformation [19]: Compound NOT metabolized
Bacterial Biotransformation [20]: Compound NOT metabolized

C[C@]12CCC(=O)C=C1[C@@H]1C[C@@H]1[C@H]1[C@@H]3[C@@H]4C[C@@H]4[C@@]4(CCC(=O)O4)[C@@]3(C)CC[C@@H]12 [DROSPIRENONE]
Bacterial Biotransformation [1]: Compound NOT metabolized
Bacterial Biotransformation [2]: Compound metabolized
Bacterial Biotransformation [3]: Compound NOT metabolized
Bacterial Biotransformation [4]: Compound metabolized
Bacterial Biotransformation [5]: Compound NOT metabolized
Bacterial Biotransformation [6]: Compound metabolized
Bacterial Biotransformation [7]: Compound metabolized
Bacterial Biotransformation [8]: Compound metabolized
Bacterial Biotransformation [9]: Compound metabolized
Bacterial Biotransformation [10]: Compound metabolized
Bacterial Biotransformation [11]: Compound metabolized
Bacterial Biotransformation [12]: Compound metabolized
Bacterial Biotransformation [13]: Compound metabolized
Bacterial Biotransformation [14]: Compound NOT metabolized
Bacterial Biotransformation [15]: Compound NOT metabolized
Bacterial Biotransformation [16]: Compound metabolized
Bacterial Biotransformation [17]: Compound metabolized
Bacterial Biotransformation [18]: Compound metabolized
Bacterial Biotransformation [19]: Compound metabolized
Bacterial Biotransformation [20]: Compound NOT metabolized

CC(C)c1c(CN(C)C(C)Cc2ccccc2)n(C)n(-c2ccccc2)c1=O (stereo not given) [FAMPROFAZONE]
Bacterial Biotransformation [1]: Compound NOT metabolized
Bacterial Biotransformation [2]: Compound NOT metabolized
Bacterial Biotransformation [3]: Compound metabolized
Bacterial Biotransformation [4]: Compound metabolized
Bacterial Biotransformation [5]: Compound metabolized
Bacterial Biotransformation [6]: Compound metabolized
Bacterial Biotransformation [7]: Compound metabolized
Bacterial Biotransformation [8]: Compound metabolized
Bacterial Biotransformation [9]: Compound metabolized
Bacterial Biotransformation [10]: Compound metabolized
Bacterial Biotransformation [11]: Compound metabolized
Bacterial Biotransformation [12]: Compound metabolized
Bacterial Biotransformation [13]: Compound metabolized
Bacterial Biotransformation [14]: Compound metabolized
Bacterial Biotransformation [15]: Compound metabolized
Bacterial Biotransformation [16]: Compound metabolized
Bacterial Biotransformation [17]: Compound metabolized
Bacterial Biotransformation [18]: Compound metabolized
Bacterial Biotransformation [19]: Compound metabolized
Bacterial Biotransformation [20]: Compound metabolized

N=C(N)NC(=O)Cc1c(Cl)cccc1Cl [GUANFACINE]
Bacterial Biotransformation [1]: Compound NOT metabolized
Bacterial Biotransformation [2]: Compound NOT metabolized
Bacterial Biotransformation [3]: Compound NOT metabolized
Bacterial Biotransformation [4]: Compound NOT metabolized
Bacterial Biotransformation [5]: Compound NOT metabolized
Bacterial Biotransformation [6]: Compound NOT metabolized
Bacterial Biotransformation [7]: Compound NOT metabolized
Bacterial Biotransformation [8]: Compound NOT metabolized
Bacterial Biotransformation [9]: Compound NOT metabolized
Bacterial Biotransformation [10]: Compound NOT metabolized
Bacterial Biotransformation [11]: Compound NOT metabolized
Bacterial Biotransformation [12]: Compound NOT metabolized
Bacterial Biotransformation [13]: Compound NOT metabolized
Bacterial Biotransformation [14]: Compound NOT metabolized
Bacterial Biotransformation [15]: Compound NOT metabolized
Bacterial Biotransformation [16]: Compound NOT metabolized
Bacterial Biotransformation [17]: Compound NOT metabolized
Bacterial Biotransformation [18]: Compound NOT metabolized
Bacterial Biotransformation [19]: Compound NOT metabolized
Bacterial Biotransformation [20]: Compound NOT metabolized
